Reference: the NIST ThermoML archive (doi:10.1021/acs.jced.7b00704)
Numbers after ± are expanded uncertainties.

Key:
[1] = refractive index (Na D-line) (dimensionless); conditions: Liquid, Standard Abbe refractometry
[2] = Liquid, Ebulliometric method (Recirculating still)

Row | Compound | refractive index ([1]; 293.15 K, 93 kPa) | refractive index ([1]; 298.15 K, 101.33 kPa) | vapor or sublimation pressure ([2]; 327.63 K) [kPa] | vapor or sublimation pressure ([2]; 396.21 K) [kPa] | vapor or sublimation pressure ([2]; 360.73 K) [kPa] | vapor or sublimation pressure ([2]; 372.05 K) [kPa]
1 | COC(C)=O [methyl ethanoate] | 1.3615 ± 0.0004 | 1.35872 ± 0.00042 | 93.13 ± 0.96 | – | – | –
2 | CCCCOC(C)=O [butyl ethanoate] | 1.3943 ± 0.0004 | 1.39175 ± 0.00038 | – | 93.13 ± 0.95 | – | –
3 | COC(=O)OC [dimethyl carbonate] | 1.3688 ± 0.0004 | 1.3664 ± 0.00042 | – | – | 93.13 ± 0.96 | –
4 | CCCOC(C)=O [propyl ethanoate] | 1.3843 ± 0.0005 | 1.38181 ± 0.00054 | – | – | – | 93.13 ± 0.97
